In patent US5208259A, “Diaryl ether hetrocycles” (Imperial Chemical Industries, priority 1989, dated 1993) one finds IC50 and ED50 data, which are given here for two compounds.

Test [1] deals with 5-LO. Nature of the test: Test b) heparinised human blood challenged with A23187, LTB4 radioimmunoassay. It counts as cell-based. To be noted: A23187, against LTB4. The procedure: b) An in vitro assay system involving incubating a test compound with heparinised human blood, prior to challenge with the calcium ionophore A23187 and then indirectly measuring the inhibitory effects on 5-L0 by assaying the amount of LTB4 using the specific radioimmunoassay described by Carey and Forder (F. Carey and R. A. Forder, Brit. J. Pharmacol. 1985, 84, 34P) which involves the use of a protein-LTB4 conjugate produced using the procedure of Young et alia (Prostaglandins, 1983, 26(4), 605-613). The effects of a test compound on the enzyme cyclooxygenase (which is involved in the alternative metabolic pathway for arachidonic acid and gives rise to prostaglandins, thromboxanes and related metabolites) may be measured at the same time using the specific radioimmunoassay for thromboxane B2 (TxB2) described by Carey and Forder (see above). This test provides an indication of the effects of a test compound against 5-L0 and also cylooxygenase in the presence of blood cells and proteins. It permits the selectivity of the inhibitory effect on 5-L0 or cyclooxygenase to be assessed.

Test [2] relates to 5-LO. Nature of the test: Test c) ex vivo assay: oral administration, blood collection, A23187 challenge, radioimmunoassay of LTB4. It counts as in vivo. The procedure: c) An ex vivo assay system, which is a variation of test b) above, involving administration of a test compound (usually orally as the suspension produced when a solution of the test compound in dimethylsulphoxide is added to carboxymethylcellulose), blood collection, heparinisation, challenge with A23187 and radioimmunoassay of LTB4 and TxB2. This test provides an indication of the bioavailability of a test compound as an inhibitor of 5-L0 or cyclooxygenase.

Test [3] relates to 5-LO. Description: Test g) zymosan-induced liberation of LTB4 within air pouch of male rats. It counts as in vivo. To be noted: 3 h; Test g), rat air pouch, oral. How it is done: g) An in vivo system involving measuring the effects of a test compound administered orally against the liberation of LTB4 induced by zymosan within an air pouch generated within the subcutaneous tissue of the back of male rats. The rats are anaesthetised and air pouches are formed by the injection of sterile air (20 ml). A further injection of air (10 ml) is similarly given after 3 days). At 6 days after the initial air injection the test compound is administered (usually orally as the suspension produced when a solution of the test compound in dimethylsulphoxide is added to hydroxypropylmethylcellulose), followed by the intrapouch injection of zymosan (1 ml of a 1% suspension in physiological saline). After 3 hours the rats are killed, the air pouches are lavaged with physiological saline, and the specific radioimmunoassay described above is used to assay LTB4 in the washings. This test provides an indication of inhibitory effects against 5-L0 in an inflammatory milieu.

What is called IC50 is the midpoint of a concentration-inhibition curve. Higher therefore signals weaker potency in that assay. One may read the ED50 as the dose at which the effect has come halfway, by size or by number of responders. Consider `COC1(c2cccc(Sc3ccc4ccccc4c3)c2)CCOCC1` [4-methoxy-4-[3-(naphth-2-ylthio)phenyl]tetrahydropyran], for which, in the test with 5-LO [1], the IC50 was less than 150 nM. The ED50 with 5-LO [2] is 3 mg/kg; in the test on 5-LO [3], less than 10 mg/kg.
Taken in the same sequence, the figures for `CO[C@]1(c2cc(F)cc(Sc3ccc(C(C)(C)C)cc3)c2)CCO[C@@H](C)C1` [(2S,4R)-4-[5-fluoro-3-(4-tert-butylphenylthio)phenyl]-4-methoxy-2-methyltetrahydropyran] were less than 150 nM, 2 mg/kg and 0.75 mg/kg.
